Experimental data published in ChEMBL document CHEMBL1131708, “Synthesis and protein kinase C binding activity of benzolactam-V7” (Bioorg Med Chem Lett, 1999).

Experiments:
[1] = biological target: T1, Protein kinase C alpha type (Homo sapiens, UniProt P17252); assay: Displacement of phorbol 12,13-dibutyrate (PDBU) from recombinant Protein kinase C alpha
[2] = biological target: T1, Protein kinase C alpha type; assay: Displacement of phorbol 12,13-dibutyrate (PDBU) from recombinant Protein kinase C alpha (Inactive at 300 nM)

Row | Compound | Ki [1] | Ki [2]
1 | CC(C)[C@H]1C(=O)N[C@H](CO)c2ccccc2N1C | 127 µM | 
2 | CCCCCCCCC#Cc1ccc2c(c1)[C@@H](CO)NC(=O)[C@H](C(C)C)N2C | 21 µM | 
3 | CC(C)[C@H]1C(=O)NC(CO)c2ccccc2N1C (single isomer, unassigned) |  | Not Active
